According to publication PMC5612938, “A multiple biomarker assay for quality assessment of botanical drugs using a versatile microfluidic chip” (Scientific Reports, 2017):
Marks after values point to notes of the source that are not given here.

How the values were obtained:
ACE (from rabbit lung) [1] = biological target: T1, ACE (from rabbit lung) (Oryctolagus cuniculus, UniProt P12822); experiment: on-chip ACE inhibition assay (FAPGG hydrolysis, absorbance decrease 340 nm); assay type: biochemical; parameters: key to IC50 (μM) or inhibition rate: /: No obvious inhibition observed; conditions: for IC50 (μM) or inhibition rate: symbol / = no obvious inhibition
T1 construct: ACE (from rabbit lung); purchased Sigma-Aldrich; host or cells: rabbit lung
T1 sequence (P12822 34-1310): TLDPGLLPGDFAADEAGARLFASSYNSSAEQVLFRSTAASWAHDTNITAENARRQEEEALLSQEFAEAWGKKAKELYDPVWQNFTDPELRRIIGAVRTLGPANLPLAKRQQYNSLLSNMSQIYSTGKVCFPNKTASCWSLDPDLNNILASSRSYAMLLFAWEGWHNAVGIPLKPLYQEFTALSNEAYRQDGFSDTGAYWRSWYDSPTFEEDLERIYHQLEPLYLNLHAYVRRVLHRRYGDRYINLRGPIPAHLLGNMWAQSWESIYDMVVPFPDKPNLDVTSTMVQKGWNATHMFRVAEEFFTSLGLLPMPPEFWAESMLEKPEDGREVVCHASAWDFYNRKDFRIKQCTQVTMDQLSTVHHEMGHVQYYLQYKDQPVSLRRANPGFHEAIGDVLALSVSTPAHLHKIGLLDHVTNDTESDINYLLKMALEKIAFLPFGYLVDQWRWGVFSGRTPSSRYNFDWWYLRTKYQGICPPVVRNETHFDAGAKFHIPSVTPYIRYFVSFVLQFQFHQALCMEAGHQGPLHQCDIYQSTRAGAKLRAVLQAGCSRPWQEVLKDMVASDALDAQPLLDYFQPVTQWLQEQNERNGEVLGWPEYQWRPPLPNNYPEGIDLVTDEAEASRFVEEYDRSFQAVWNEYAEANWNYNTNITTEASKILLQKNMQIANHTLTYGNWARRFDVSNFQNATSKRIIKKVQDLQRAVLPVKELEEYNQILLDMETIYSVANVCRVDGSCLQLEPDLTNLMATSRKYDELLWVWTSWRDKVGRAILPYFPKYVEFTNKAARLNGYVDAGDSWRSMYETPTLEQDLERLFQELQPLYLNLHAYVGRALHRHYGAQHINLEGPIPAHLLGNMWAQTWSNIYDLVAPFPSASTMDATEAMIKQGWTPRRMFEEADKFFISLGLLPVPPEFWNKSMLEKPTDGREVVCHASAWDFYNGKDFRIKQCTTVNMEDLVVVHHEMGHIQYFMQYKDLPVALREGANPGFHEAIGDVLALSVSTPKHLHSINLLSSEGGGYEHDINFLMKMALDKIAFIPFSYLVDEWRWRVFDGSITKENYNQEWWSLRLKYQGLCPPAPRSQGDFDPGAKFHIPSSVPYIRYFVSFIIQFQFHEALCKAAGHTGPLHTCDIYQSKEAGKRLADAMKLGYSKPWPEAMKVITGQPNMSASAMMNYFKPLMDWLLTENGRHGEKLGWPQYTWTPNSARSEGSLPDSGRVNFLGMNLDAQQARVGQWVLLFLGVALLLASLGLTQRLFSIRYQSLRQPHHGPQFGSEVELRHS
Experimental: To enhance the performance of the on-chip assay, experimental parameters such as concentrations of enzymes and substrates, substrate reaction time, and incubation time of samples and enzymes were stepwise optimized.
The optimized protocol was first applied to assess the quality of 11 batches of QSYQ intermediates (Table 1). Enzyme inhibition (in percentages) was employed as an indicator of drug quality and calculated according to the following equations: thrombin inhibition (%) = [1 − (AQSYQ/Ablank)] × 100; ACE inhibition (%) = [1 − (ΔAQSYQ/ΔAblank)] × 100; where AQSYQ and Ablank were the absorbance of the test sample and the blank sample after the enzymatic reaction (the background value was subtracted), and ΔAQSYQ and ΔAblank were the absorbance decrease between 0 min and 30 min of the samples.
Thrombin (from human plasma), ACE (from rabbit lung), FAPGG and captopril were purchased from Sigma-Aldrich (St. Louis, USA). […] AEBSF-HCl was purchased from Selleckchem (Houston, USA). Trizma base (Tris) was obtained from Sangon Biotech (Shanghai, China) and dimethyl sulfoxide (DMSO) from J&K Scientific (Beijing, China). All other chemicals were purchased from Sinopharm Chemical (Shanghai, China) unless otherwise indicated. 0.2 M Phosphate buffer (PB, pH 6.5), and 50 mM Tris-HCl buffer (200 mM NaCl, pH 8.3) were prepared as assay buffers for thrombin and ACE, respectively.
MBs (10 mg/mL) were diluted 10 times in PB or Tris-HCl buffer, and 10 μL of the diluted MBs (1 mg/mL) were injected into one channel of the chip using a syringe infusion pump (Harvard Apparatus, USA) and retained by an external magnet. Then, 10 μL of thrombin or ACE solution was added and incubated with MBs for two hours at room temperature to form enzyme-MB complexes. The magnet was manually controlled to move MBs back and forth to enhance the ratio of reaction. Subsequently, MBs were washed twice in assay buffer and magnetically transferred to the other channel through the fluidic bridge, whose opening and closing was controlled by a pneumatic valve. Next, 10 μL of sample solutions of tested drug and 10 μL of enzymatic substrate were sequentially infused to the channel by the pump and incubated with the enzyme. When the enzymatic reaction was finished, the MBs were retained in the channel, and air was injected into the channel from the inlet using a syringe to push all the reacted solution to a 384-well plate. […] Moreover, after detection, the reaction channel was washed three times by assay buffer to remove unbound constituents. 20 μL of 80% aqueous methanol was then injected and incubated with MBs for one hour to dissociate the bound constituents. The resulting solutions of replicates were combined, evaporated by a centrifugal evaporator, reconstituted in 80% aqueous methanol, centrifuged at 10,000 rpm for 10 min, and analyzed by LC-MS for chemical identification.

ACE (from rabbit lung) [2] = biological target: T1, ACE (from rabbit lung); experiment: on-chip affinity screening, binding degree by LC-MS peak area vs protein-free control (ACE); conditions: for ACE; [(As − Ac)/As] × 100, sample vs protein-free control, EIC peak area
Text: In addition to quality assessment, the microfluidic chip can also function as “affinity chromatography” to identify bioactive constituents from botanical drugs in a convenient and efficient manner. After the bioassay, the bound phytochemicals were dissociated from the enzymes and accurately identified by LC-MS. The material used for the chambers in microfluidic system, polydimethylsiloxane (PDMS), is apt to adsorb small molecules nonspecifically, thus a protein-free control was applied to reflect the degree of nonspecific binding of compounds to the chip. Peak areas were obtained from the extracted ion chromatography (EIC) in an ion-trap mass spectrometry (IT-MS), and binding degree (binding degree % = [(As − Ac)/As] × 100, where As and Ac were the peak area in the sample and control, respectively) was calculated to indicate binding specificity. […] All these peaks were unambiguously confirmed via comparisons with chemical standards in terms of retention time and mass spectra (Table 2), and five thrombin inhibitors (danshensu, salvianolic acid B, salvianolic acid C, rosmarinic acid and ginsenoside Rg1) and six ACE inhibitors (astragaloside IV, ononin, formononetin, calycosin, danshensu and salvianolic acid B) were preliminarily identified. […] Enzyme inhibition assays of these hit compounds were then performed to verify the screening results. […] Compounds showing an inhibition rate over 70% were subjected to IC50 measurement.
MBs (10 mg/mL) were diluted 10 times in PB or Tris-HCl buffer, and 10 μL of the diluted MBs (1 mg/mL) were injected into one channel of the chip using a syringe infusion pump (Harvard Apparatus, USA) and retained by an external magnet. Then, 10 μL of thrombin or ACE solution was added and incubated with MBs for two hours at room temperature to form enzyme-MB complexes. The magnet was manually controlled to move MBs back and forth to enhance the ratio of reaction. Subsequently, MBs were washed twice in assay buffer and magnetically transferred to the other channel through the fluidic bridge, whose opening and closing was controlled by a pneumatic valve. Next, 10 μL of sample solutions of tested drug and 10 μL of enzymatic substrate were sequentially infused to the channel by the pump and incubated with the enzyme. When the enzymatic reaction was finished, the MBs were retained in the channel, and air was injected into the channel from the inlet using a syringe to push all the reacted solution to a 384-well plate. The absorbance of the solution was then monitored at 405 nm (for S-2238) or 340 nm (for FAPGG) using an Infinite F200 spectrophotometer (Tecan, Männedorf, Switzerland). Moreover, after detection, the reaction channel was washed three times by assay buffer to remove unbound constituents. 20 μL of 80% aqueous methanol was then injected and incubated with MBs for one hour to dissociate the bound constituents. The resulting solutions of replicates were combined, evaporated by a centrifugal evaporator, reconstituted in 80% aqueous methanol, centrifuged at 10,000 rpm for 10 min, and analyzed by LC-MS for chemical identification.
An Agilent 1100 HPLC system (Agilent Technologies, Waldbronn, Germany) coupled with an LCQ Deca XP^plus IT-MS (Thermo Finnigan, San Jose, CA, USA) equipped with an electrospray ionization (ESI) interface was employed for structure elucidation of the bounded constituents. The analysis was performed in negative ionization mode under following operation parameters: scan range m/z 100–1500; capillary voltage −15 V; source voltage −3 kV; capillary temperature 350 °C; sheath gas (N2) 60 arb; auxiliary gas (N2) 20 arb.

SMILES	IC50 (μM) or inhibition rate (ACE (from rabbit lung) [1]; for ACE)	Binding degree (%) (ACE (from rabbit lung) [2])	ACE inhibition (in words) (ACE (from rabbit lung) [1]; at tested concentrations)	inhibition rate (ACE (from rabbit lung) [1]; for ACE, maximum inhibition rate observed in the assay) [%^d]
CC(C)(O)[C@@H]1CC[C@](C)([C@H]2[C@@H](O)C[C@@]3(C)[C@@H]4C[C@H](O[C@@H]5O[C@H](CO)[C@@H](O)[C@H](O)[C@H]5O)[C@H]5C(C)(C)[C@@H](O[C@@H]6OC[C@@H](O)[C@H](O)[C@H]6O)CC[C@@]56C[C@@]46CC[C@]23C)O1 [Astragaloside IV]	/^g	28.3^d %	–	–
COc1ccc(-c2coc3cc(O)ccc3c2=O)cc1O [Calycosin]	/^g	19.1^d %	–	–
COc1ccc(-c2coc3cc(O[C@@H]4O[C@H](CO)[C@@H](O)[C@H](O)[C@H]4O)ccc3c2=O)cc1 [Ononin]	–	52.6^d %	showed ACE inhibitions	30.6
COc1ccc(-c2coc3cc(O)ccc3c2=O)cc1 [Formononetin]	/^g	53.8^d %	–	–
